This is an account of results in ChEMBL document CHEMBL1201862, “PubChem BioAssay data set” (2004).

Among the test systems are A549; CCRF-CEM; DU-145; HCT-116; HL-60; IGROV-1; K562; KM12; M14; MDA-MB-231; NCI-H23; NCI-H460; OVCAR-3; RXF 393; SK-MEL-5; SK-OV-3; SNB-19; SW-620; UO-31.
What all share (assay): DTP human tumour cell line panel, 48 h

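Five concentrations, 48 hours, 96-well plates. GI50 = concentration required for 50% inhibition of growth.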 The source made the active and inactive calls. Cut-off read from the data, not from the text of the source: active = GI50 up to about 1.1 µM and inactive = higher.

For the compound `Cc1c(/N=N/c2ccccc2)c(C)n(C2OC(CO)C(O)C(O)C2O)c(=S)c1C#N` (stereo not drawn), the GI50 (in general, the concentration giving 50% growth inhibition) is 35.5 µM (inactive) with A549; 22.5 µM (inactive) in the assay with CCRF-CEM; 25.1 µM (inactive) in the assay with DU-145; 21.1 µM (inactive) in the assay with HCT-116; 34.1 µM (inactive) in the assay on HL-60; 37.7 µM (inactive) in the assay on IGROV-1. The GI50 with K562 was 24.4 µM (inactive); with KM12, 33.5 µM (inactive); in the assay with M14 it was 25.6 µM (inactive); with MDA-MB-231, 45.3 µM (inactive); in the assay on NCI-H23, 27.3 µM (inactive); in the assay with NCI-H460, 31.3 µM (inactive). Besides, the GI50 is 21.6 µM (inactive) in the assay on OVCAR-3; 33 µM (inactive) with RXF 393; 12.3 µM (inactive) with SK-MEL-5; 34 µM (inactive) in the assay with SK-OV-3; 34.8 µM (inactive) with SNB-19; 29.4 µM (inactive) in the assay with SW-620. The GI50 with UO-31 was 26.2 µM (inactive).
Regarding `CCOC(=O)c1sc2c(c1O)c(=O)n(-c1ccccc1)c(=S)n2-c1ccccc1`, the GI50 was 55.3 µM (inactive) in the assay with A549; 32.7 µM (inactive) with CCRF-CEM; 71.8 µM (inactive) with DU-145; 35.1 µM (inactive) in the assay with HL-60; > 100 µM (inactive) in the assay on IGROV-1; 42.8 µM (inactive) in the assay on K562. For the same compound, the GI50 was 46.7 µM (inactive) in the assay with KM12; > 100 µM (inactive) with M14; > 100 µM (inactive) in the assay with MDA-MB-231; 91.4 µM (inactive) with NCI-H23; > 100 µM (inactive) with NCI-H460; 51.1 µM (inactive) in the assay on OVCAR-3. Also, the GI50 in the assay on RXF 393 is > 100 µM (inactive); in the assay on SK-MEL-5, > 100 µM (inactive); with SNB-19 it was > 100 µM (inactive); with SW-620, 99.3 µM (inactive); with UO-31, 87.3 µM (inactive).
Take `Clc1cccc(/C=c2\nc(-c3ccccc3)n3c2nc2ccccc23)c1`: the GI50 with A549, in the assay on CCRF-CEM, in the assay on DU-145, with HCT-116, with HL-60 and in the assay with IGROV-1 was > 100 µM (inactive) throughout. The GI50 is > 100 µM (inactive) in the assay with K562; > 100 µM (inactive) in the assay with KM12; > 100 µM (inactive) in the assay on M14; 42.7 µM (inactive) in the assay on MDA-MB-231; 72.8 µM (inactive) in the assay with NCI-H23; > 100 µM (inactive) in the assay with NCI-H460. In addition, the GI50 in the assay with OVCAR-3 was > 100 µM (inactive); in the assay with RXF 393, 31.9 µM (inactive); with SK-MEL-5, > 100 µM (inactive); in the assay on SK-OV-3 it was 57.5 µM (inactive); with SNB-19, > 100 µM (inactive); in the assay on SW-620, > 100 µM (inactive). Moreover, the GI50 in the assay on UO-31 is > 100 µM (inactive).
In the case of `O=C1/C(=C/c2ccc([N+](=O)[O-])cc2)Sc2scc(-c3cccc([N+](=O)[O-])c3)[n+]21`, the GI50 with A549 was 22.2 µM (inactive); in the assay on CCRF-CEM, 0.364 µM (active); with DU-145, 10.6 µM (inactive); in the assay on HCT-116, 4.6 µM (inactive); in the assay with HL-60, 0.331 µM (active); in the assay with IGROV-1 it was 2.91 µM (inactive). For the same compound, the GI50 in the assay with K562 was 2.77 µM (inactive); in the assay with KM12, 10.8 µM (inactive); in the assay with M14 it was 3.78 µM (inactive); with MDA-MB-231, 4.91 µM (inactive); in the assay on NCI-H23 it was 7.93 µM (inactive); in the assay on NCI-H460 it was 8.99 µM (inactive). The GI50 was 4.24 µM (inactive) with OVCAR-3; 2.35 µM (inactive) in the assay with RXF 393; 5.86 µM (inactive) with SK-MEL-5; 15.9 µM (inactive) in the assay on SK-OV-3; 14.8 µM (inactive) with SNB-19; 1.69 µM (inactive) with SW-620. Moreover, the GI50 with UO-31 was 8.51 µM (inactive).
As to `NCc1ccc(C(=O)O)cc1` [AMINOMETHYLBENZOIC ACID], the GI50 in the assay with A549, in the assay with DU-145, in the assay with HCT-116, with HL-60, in the assay with IGROV-1 and with K562 was > 100 µM (inactive) throughout. For the same compound, the GI50 in the assay on KM12, with M14, in the assay on MDA-MB-231, in the assay on NCI-H23, in the assay on NCI-H460 and in the assay on OVCAR-3 was > 100 µM (inactive) in each case. Moreover, the GI50 in the assay with RXF 393, in the assay on SK-MEL-5, in the assay on SNB-19, in the assay with SW-620 and with UO-31 was > 100 µM (inactive) each time.
As to `CC(C)(C)C(=O)N(C(=S)OCc1ccccn1)c1ccccc1`, the GI50 with CCRF-CEM is 22.6 µM (inactive); with DU-145 it was 38.6 µM (inactive); in the assay with HCT-116, 23.1 µM (inactive); with HL-60, 19.9 µM (inactive); in the assay with IGROV-1, 19.9 µM (inactive); with K562, 36.7 µM (inactive). Further, the GI50 in the assay on KM12 was 26.4 µM (inactive); with M14, 39.4 µM (inactive); with MDA-MB-231 it was 31 µM (inactive); in the assay with NCI-H23, 35.3 µM (inactive); with OVCAR-3 it was 30.9 µM (inactive); with RXF 393, 18.2 µM (inactive). In addition, the GI50 was 20 µM (inactive) with SK-MEL-5; > 100 µM (inactive) with SK-OV-3; 59.6 µM (inactive) with SNB-19; 47.6 µM (inactive) in the assay with SW-620; 27.8 µM (inactive) in the assay on UO-31.
Turning to `CCCCCCCCCc1c(O)c(O)c(CCCCCCCCC)c(CCCCCCCCC)c1CCCCCCCCC`, the GI50 in the assay with A549 is > 100 µM (inactive); in the assay with CCRF-CEM, 31 µM (inactive); in the assay on DU-145, > 100 µM (inactive); in the assay with HCT-116, > 100 µM (inactive); in the assay with HL-60, 26.4 µM (inactive); in the assay with IGROV-1, > 100 µM (inactive). In addition, the GI50 with K562 is 65.9 µM (inactive); with KM12, > 100 µM (inactive); in the assay with M14, > 100 µM (inactive); with MDA-MB-231 it was > 100 µM (inactive); with NCI-H23, > 100 µM (inactive); in the assay with NCI-H460, > 100 µM (inactive). In addition, the GI50 with OVCAR-3 was 37.9 µM (inactive); in the assay on RXF 393 it was > 100 µM (inactive); with SK-MEL-5 it was > 100 µM (inactive); in the assay on SK-OV-3 it was > 100 µM (inactive); in the assay with SNB-19, > 100 µM (inactive); in the assay with SW-620, > 100 µM (inactive).
Turning to `Oc1cc(O)c2c(c1)O[C@H](c1cc(O)c(O)c(O)c1)[C@H](O)C2` [EPIGALLOCATECHIN], the GI50 with A549 was 27.5 µM (inactive); in the assay with CCRF-CEM, 17.9 µM (inactive); in the assay on DU-145, 63.7 µM (inactive); in the assay with HCT-116 it was 19.2 µM (inactive); in the assay with HL-60, 19.5 µM (inactive); with IGROV-1, 20.4 µM (inactive). Moreover, the GI50 in the assay with K562 is 20.4 µM (inactive); in the assay on M14 it was 23.6 µM (inactive); in the assay with MDA-MB-231 it was 18.7 µM (inactive); in the assay with NCI-H23 it was 23.1 µM (inactive); with NCI-H460, 18.3 µM (inactive); with OVCAR-3, 47 µM (inactive). Besides, the GI50 in the assay with RXF 393 was 15.2 µM (inactive); in the assay on SK-MEL-5 it was 16.9 µM (inactive); with SK-OV-3, 18.6 µM (inactive); with SNB-19, > 100 µM (inactive); in the assay on SW-620, 17.5 µM (inactive); in the assay on UO-31, 18.5 µM (inactive).
With `CN1CCN(C(=O)CCC(=O)Nc2cc3c(c4ccccc24)-c2ccc4ccccc4c2C3)CC1`, the GI50 in the assay on A549 is 1.96 µM (inactive); in the assay with CCRF-CEM, 2.08 µM (inactive); in the assay with DU-145, 1.77 µM (inactive); in the assay with HCT-116 it was 1.55 µM (inactive); in the assay with HL-60, 2 µM (inactive); with IGROV-1, 1.15 µM (inactive). The GI50 in the assay on K562 was 1.91 µM (inactive); in the assay with KM12, 1.55 µM (inactive); with M14, 1.45 µM (inactive); with MDA-MB-231, 1.26 µM (inactive); with NCI-H23, 1.97 µM (inactive); with NCI-H460, 1.82 µM (inactive). The GI50 in the assay with OVCAR-3 is 1.63 µM (inactive); in the assay with RXF 393 it was 1.73 µM (inactive); in the assay with SK-MEL-5, 1.6 µM (inactive); in the assay on SK-OV-3, 1.6 µM (inactive); in the assay on SNB-19, 2.14 µM (inactive); in the assay on UO-31, 1.65 µM (inactive).
Turning to `Cc1ccc(OCC2OC(n3cnc4c(Br)nc(Br)nc43)CC2Oc2ccc(C)cc2)cc1` (stereo not drawn), the GI50 in the assay on A549 was 12.6 µM (inactive); in the assay on CCRF-CEM it was 2.7 µM (inactive); in the assay on DU-145, 2.38 µM (inactive); in the assay on HCT-116 it was 1.89 µM (inactive); in the assay on HL-60, 1.91 µM (inactive); with IGROV-1, 5.04 µM (inactive). In addition, the GI50 with K562 was 2.57 µM (inactive); in the assay with KM12 it was 3.08 µM (inactive); in the assay with M14 it was 2.59 µM (inactive); in the assay with MDA-MB-231, 2.12 µM (inactive); in the assay on NCI-H23, 4.55 µM (inactive); with OVCAR-3 it was 5.6 µM (inactive). For the same compound, the GI50 with RXF 393 is 4.94 µM (inactive); in the assay with SK-MEL-5, 6.31 µM (inactive); with SK-OV-3, 14.5 µM (inactive); in the assay on SNB-19, 7.31 µM (inactive); with SW-620 it was 2.56 µM (inactive); in the assay with UO-31 it was 14.3 µM (inactive).
For `N#CCCN(CCCCN(CCC#N)C(=O)Nc1ccccc1)C(=O)Nc1ccccc1`, the GI50 in the assay with A549, in the assay on DU-145, in the assay with HCT-116, in the assay with HL-60, with IGROV-1 and in the assay on K562 was > 100 µM (inactive) in each case. Besides, the GI50 in the assay on KM12, in the assay with M14, with MDA-MB-231, with NCI-H23, in the assay on NCI-H460 and with OVCAR-3 was > 100 µM (inactive) in each case. For the same compound, the GI50 with RXF 393 is 24.4 µM (inactive); in the assay on SK-MEL-5, > 100 µM (inactive); in the assay with SK-OV-3 it was > 100 µM (inactive); with SNB-19, > 100 µM (inactive); in the assay with SW-620 it was > 100 µM (inactive); in the assay with UO-31, > 100 µM (inactive).
